Test system: Aspergillus niger
Experiment: Bacteria inhibiting effect, dilution-plate method (colony count)
Format: cell-based
Settings: 27° C., 72 h
Method: • 1. […] Dilution-plate method The preservatives were dissolved with sterilized water and diluted to the concentrations in Table 1. 1 ml of each sample was added into a sterilized Petri dish, and then 1 ml bacterial suspension was added into each dish. The sample and the bacterial suspension were well mixed in the dish and 20 ml sterilized culture medium was added into the dish at ≦45° C., such that the final concentration of the preservatives is as described in Table 1. After solidification, the dish was incubated in a constant temperature incubator at 27° C. for 72 h, and the number of the colony was then counted.

[1] = final concentration of the preservative 0.01 % (extract calculated as benzoic acid)
[2] = final concentration of the preservative 0.02 % (extract calculated as benzoic acid)
[3] = final concentration of the preservative 0.04 % (extract calculated as benzoic acid)

Row | SMILES | Inhibition [1] [%] | colony number [1] [cfu/dish] | Inhibition [2] [%] | colony number [2] [cfu/dish] | Inhibition [3] [%] | colony number [3] [cfu/dish]
1 | O=C(O)c1ccccc1 [Benzoic acid] | 0 | 49 | 40 | 32 | 62 | 20
2 | C/C=C/C=C/C(=O)O [Sorbic acid] | 0 | 50 | 38 | 33 | – | –

From US20130296432A1, “BENZOIC ACID-ENRICHED PLANT EXTRACTS AND USE THEREOF” (EPC (BEIJING) NATURAL PRODUCTS CO., LTD., priority 2012, published 2013)
